ChEMBL document CHEMBL3885881, “DrugMatrix”

Species: Rattus norvegicus
Experiment: DrugMatrix - Regimen: Daily Repeat
Format: toxicity, organism-based, Sprague-Dawley
Design: regimen Daily Repeat, gender Male, age 6-8 weeks
Settings: in vivo, po, route oral GAVAGE, vehicle .5 % CMC; for ABSOLUTE BASOPHIL / ABSOLUTE EOSINOPHIL / ABSOLUTE LYMPHOCYTE / ABSOLUTE MONOCYTE / ABSOLUTE SEGMENTED NEUTROPHIL / BASOPHIL / EOSINOPHIL / ERYTHROCYTE COUNT / HEMATOCRIT / HEMOGLOBIN / LEUKOCYTE COUNT / LYMPHOCYTE / MEAN CORPUSCULAR HEMOGLOBIN / MEAN CORPUSCULAR HEMOGLOBIN CONCENTRATION / MEAN CORPUSCULAR VOLUME / MONOCYTE / NEUTROPHIL / NUCLEATED RED BLOOD CELLS / PLATELET COUNT: tissue Blood; for ALANINE AMINOTRANSFERASE / ALBUMIN / ALKALINE PHOSPHATASE / ASPARTATE AMINOTRANSFERASE / BLOOD UREA NITROGEN / CARBON DIOXIDE / CHLORIDE / CHOLESTEROL / CREATINE PHOSPHOKINASE / CREATININE / GLUCOSE / LACTATE DEHYDROGENASE / LIPASE / PHOSPHORUS / POTASSIUM / SODIUM / TOTAL BILIRUBIN / TOTAL PROTEIN / URIC ACID: tissue Plasma
[1] = 300 mg/kg, 72 h, dose level M1, time 3 day
[2] = 300 mg/kg, 120 h, dose level M1, time 5 day
[3] = 1100 mg/kg, 72 h, dose level High, time 3 day
[4] = 1100 mg/kg, 120 h, dose level High, time 5 day

COc1ccc(/C=C/C(=O)Nc2ccccc2C(=O)O)cc1OC
ABSOLUTE BASOPHIL [1]: 0 CELLS/uL
ABSOLUTE EOSINOPHIL [1]: 0 CELLS/uL
ABSOLUTE LYMPHOCYTE [1]: 15435.67 CELLS/uL
ABSOLUTE MONOCYTE [1]: 65.33 CELLS/uL
ABSOLUTE SEGMENTED NEUTROPHIL [1]: 1499 CELLS/uL
BASOPHIL [1]: 0%
EOSINOPHIL [1]: 0%
ERYTHROCYTE COUNT [1]: 5.52 x10E6/uL
HEMATOCRIT [1]: 35.2%
HEMOGLOBIN [1]: 13.97 G/DL
LEUKOCYTE COUNT [1]: 17 x10E3/uL
LYMPHOCYTE [1]: 90.67%
MEAN CORPUSCULAR HEMOGLOBIN [1]: 25.3 pg
MEAN CORPUSCULAR HEMOGLOBIN CONCENTRATION [1]: 39.67 G/DL
MEAN CORPUSCULAR VOLUME [1]: 63.73 fL
MONOCYTE [1]: 0.33%
NEUTROPHIL [1]: 9%
NUCLEATED RED BLOOD CELLS [1]: 0 /100WBC
PLATELET COUNT [1]: 1287.67 x10E3/uL
ALANINE AMINOTRANSFERASE [1]: 54.67 u/L
ALBUMIN [1]: 4.27 G/DL
ALKALINE PHOSPHATASE [1]: 401.67 u/L
ASPARTATE AMINOTRANSFERASE [1]: 92.67 u/L
BLOOD UREA NITROGEN [1]: 14 mg/dL
CARBON DIOXIDE [1]: 24 mmol/L
CHLORIDE [1]: 103 MEQ/L
CHOLESTEROL [1]: 78.33 mg/dL
CREATINE PHOSPHOKINASE [1]: 294 u/L
CREATININE [1]: 0.15 mg/dL
GLUCOSE [1]: 150.67 mg/dL
LACTATE DEHYDROGENASE [1]: 445 u/L
LIPASE [1]: 9 u/L
PHOSPHORUS [1]: 13.6 mg/dL
POTASSIUM [1]: 6.91 MEQ/L
SODIUM [1]: 145.8 MEQ/L
TOTAL BILIRUBIN [1]: 0.17 mg/dL
TOTAL PROTEIN [1]: 6 G/DL
URIC ACID [1]: 1.4 mg/dL
ABSOLUTE BASOPHIL [2]: 0 CELLS/uL
ABSOLUTE EOSINOPHIL [2]: 240.33 CELLS/uL
ABSOLUTE LYMPHOCYTE [2]: 16960.67 CELLS/uL
ABSOLUTE MONOCYTE [2]: 310.67 CELLS/uL
ABSOLUTE SEGMENTED NEUTROPHIL [2]: 988.33 CELLS/uL
BASOPHIL [2]: 0%
EOSINOPHIL [2]: 1.33%
ERYTHROCYTE COUNT [2]: 5.25 x10E6/uL
HEMATOCRIT [2]: 33.97%
HEMOGLOBIN [2]: 13.6 G/DL
LEUKOCYTE COUNT [2]: 18.5 x10E3/uL
LYMPHOCYTE [2]: 91.67%
MEAN CORPUSCULAR HEMOGLOBIN [2]: 25.93 pg
MEAN CORPUSCULAR HEMOGLOBIN CONCENTRATION [2]: 40.07 G/DL
MEAN CORPUSCULAR VOLUME [2]: 64.73 fL
MONOCYTE [2]: 1.67%
NEUTROPHIL [2]: 5.33%
NUCLEATED RED BLOOD CELLS [2]: 0 /100WBC
PLATELET COUNT [2]: 1233.33 x10E3/uL
ALANINE AMINOTRANSFERASE [2]: 54.33 u/L
ALBUMIN [2]: 4.33 G/DL
ALKALINE PHOSPHATASE [2]: 383 u/L
ASPARTATE AMINOTRANSFERASE [2]: 84.33 u/L
BLOOD UREA NITROGEN [2]: 18 mg/dL
CARBON DIOXIDE [2]: 21 mmol/L
CHLORIDE [2]: 105 MEQ/L
CHOLESTEROL [2]: 63 mg/dL
CREATINE PHOSPHOKINASE [2]: 256.33 u/L
CREATININE [2]: 0.21 mg/dL
GLUCOSE [2]: 156.33 mg/dL
LACTATE DEHYDROGENASE [2]: 285 u/L
LIPASE [2]: 8 u/L
PHOSPHORUS [2]: 11.8 mg/dL
POTASSIUM [2]: 6.72 MEQ/L
SODIUM [2]: 146.17 MEQ/L
TOTAL BILIRUBIN [2]: 0.2 mg/dL
TOTAL PROTEIN [2]: 5.93 G/DL
URIC ACID [2]: 1.3 mg/dL
ABSOLUTE BASOPHIL [3]: 0 CELLS/uL
ABSOLUTE EOSINOPHIL [3]: 138 CELLS/uL
ABSOLUTE LYMPHOCYTE [3]: 17593 CELLS/uL
ABSOLUTE MONOCYTE [3]: 218.33 CELLS/uL
ABSOLUTE SEGMENTED NEUTROPHIL [3]: 4950.67 CELLS/uL
BASOPHIL [3]: 0%
EOSINOPHIL [3]: 0.67%
ERYTHROCYTE COUNT [3]: 5.25 x10E6/uL
HEMATOCRIT [3]: 33.23%
HEMOGLOBIN [3]: 12.93 G/DL
LEUKOCYTE COUNT [3]: 22.9 x10E3/uL
LYMPHOCYTE [3]: 77%
MEAN CORPUSCULAR HEMOGLOBIN [3]: 24.77 pg
MEAN CORPUSCULAR HEMOGLOBIN CONCENTRATION [3]: 38.97 G/DL
MEAN CORPUSCULAR VOLUME [3]: 63.5 fL
MONOCYTE [3]: 1%
NEUTROPHIL [3]: 21.33%
NUCLEATED RED BLOOD CELLS [3]: 0 /100WBC
PLATELET COUNT [3]: 1488 x10E3/uL
ALANINE AMINOTRANSFERASE [3]: 95 u/L
ALBUMIN [3]: 4.4 G/DL
ALKALINE PHOSPHATASE [3]: 368 u/L
ASPARTATE AMINOTRANSFERASE [3]: 112.67 u/L
BLOOD UREA NITROGEN [3]: 18.33 mg/dL
CARBON DIOXIDE [3]: 19.33 mmol/L
CHLORIDE [3]: 104 MEQ/L
CHOLESTEROL [3]: 47.33 mg/dL
CREATINE PHOSPHOKINASE [3]: 547 u/L
CREATININE [3]: 0.11 mg/dL
GLUCOSE [3]: 149.67 mg/dL
LACTATE DEHYDROGENASE [3]: 794 u/L
LIPASE [3]: 10 u/L
PHOSPHORUS [3]: 12 mg/dL
POTASSIUM [3]: 5.56 MEQ/L
SODIUM [3]: 142.2 MEQ/L
TOTAL BILIRUBIN [3]: 0.27 mg/dL
TOTAL PROTEIN [3]: 5.77 G/DL
URIC ACID [3]: 1.67 mg/dL
ABSOLUTE BASOPHIL [4]: 0 CELLS/uL
ABSOLUTE EOSINOPHIL [4]: 0 CELLS/uL
ABSOLUTE LYMPHOCYTE [4]: 8740 CELLS/uL
ABSOLUTE MONOCYTE [4]: 0 CELLS/uL
ABSOLUTE SEGMENTED NEUTROPHIL [4]: 2760 CELLS/uL
BASOPHIL [4]: 0%
EOSINOPHIL [4]: 0%
ERYTHROCYTE COUNT [4]: 5.33 x10E6/uL
HEMATOCRIT [4]: 31.3%
HEMOGLOBIN [4]: 12.1 G/DL
LEUKOCYTE COUNT [4]: 11.5 x10E3/uL
LYMPHOCYTE [4]: 76%
MEAN CORPUSCULAR HEMOGLOBIN [4]: 22.7 pg
MEAN CORPUSCULAR HEMOGLOBIN CONCENTRATION [4]: 38.7 G/DL
MEAN CORPUSCULAR VOLUME [4]: 58.8 fL
MONOCYTE [4]: 0%
NEUTROPHIL [4]: 24%
NUCLEATED RED BLOOD CELLS [4]: 2 /100WBC
PLATELET COUNT [4]: 1853 x10E3/uL
ALANINE AMINOTRANSFERASE [4]: 113 u/L
ALBUMIN [4]: 4.4 G/DL
ALKALINE PHOSPHATASE [4]: 238 u/L
ASPARTATE AMINOTRANSFERASE [4]: 86 u/L
BLOOD UREA NITROGEN [4]: 17 mg/dL
CARBON DIOXIDE [4]: 22 mmol/L
CHLORIDE [4]: 102 MEQ/L
CHOLESTEROL [4]: 58 mg/dL
CREATINE PHOSPHOKINASE [4]: 287 u/L
CREATININE [4]: 0.1 mg/dL
GLUCOSE [4]: 153 mg/dL
LACTATE DEHYDROGENASE [4]: 188 u/L
LIPASE [4]: 9 u/L
PHOSPHORUS [4]: 14.8 mg/dL
POTASSIUM [4]: 5.92 MEQ/L
SODIUM [4]: 141.9 MEQ/L
TOTAL BILIRUBIN [4]: 0.2 mg/dL
TOTAL PROTEIN [4]: 5.6 G/DL
URIC ACID [4]: 2.1 mg/dL
